These results are taken from patent US8802664B2 (Bioproject, priority 2010, dated 2014).

Where two headings read alike, the source gives them in different places.

This test addresses T1, human H4 receptor (Homo sapiens, UniProt Q9H3N8).
T1 construct: expressed in transfected cells
Put plainly: [3H]Histamine binding on membranes of CHO cells stably expressing human H4 receptor. In short, it runs like this:
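Filter-bound counts (liquid scintillation) gave H4 binding. Incubation used 20 μg membrane protein/well in Tris/HCl 50 mM plus EDTA 0.5 mM at pH 7.4, and 10 μM JNJ 7777120 set nonspecific binding. Filtration on GF/B pretreated with polyethyleneimine stopped the reaction.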

[1] abbreviates: human H4 receptor, evaluated in the GTPγ[35S] assay or in the [3H]histamine binding assay (not stated which per compound), Ki or IC50 class.

T1 sequence (Q9H3N8 whole entry): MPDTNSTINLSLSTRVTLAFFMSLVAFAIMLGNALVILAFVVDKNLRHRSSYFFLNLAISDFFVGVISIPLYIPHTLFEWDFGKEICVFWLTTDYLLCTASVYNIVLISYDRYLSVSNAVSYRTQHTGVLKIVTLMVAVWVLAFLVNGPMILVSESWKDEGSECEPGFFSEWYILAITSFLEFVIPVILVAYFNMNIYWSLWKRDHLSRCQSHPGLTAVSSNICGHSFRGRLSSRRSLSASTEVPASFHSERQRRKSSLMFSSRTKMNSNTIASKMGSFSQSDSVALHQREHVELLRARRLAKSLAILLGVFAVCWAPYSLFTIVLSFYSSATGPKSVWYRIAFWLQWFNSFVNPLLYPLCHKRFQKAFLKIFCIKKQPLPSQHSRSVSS

In the case of `CN1CCC(NC(c2cccc(OCc3cc(F)ccc3F)c2)c2nc3ccccc3[nH]2)CC1` (stereo not shown) [Example 149, {(1H-benzimidazol-2-yl)[3-(2,5-difluoro-benzyloxy)phenyl]methyl}(1-methylpiperidin-4-yl)amine], the Ki or IC50 activity class is < 30 nM.

With `CN1CCC(OC(c2cccc(C#CCCCn3nccn3)c2)c2nc3ccccc3[nH]2)CC1` (stereo not shown) [Example 416, 2-{(1-methylpiperidin-4-yloxy)[3-(5-[1,2,3]triazol-2-yl-pent-1-ynyl)phenyl]methyl}-1H-benzimidazole], the Ki or IC50 activity class was < 300 nM.

Consider `CN1CCC(NC(c2cccc(SCc3ccccc3)c2)c2nc3ccccc3s2)CC1` (stereo not shown) [Example 107, [benzothiazol-2-yl(3-benzylsulfanylphenyl)methyl](1-methylpiperidin-4-yl)amine], for which the Ki or IC50 activity class is < 30 nM.

Take `CN1CCC(OC(c2cccc(C#CC3CN(C(=N)N)C3)c2)c2nc3ccccc3[nH]2)CC1` (stereo not shown) [Example 426, 3-{3-[(1H-benzimidazol-2-yl)(1-methylpiperidin-4-yloxy)methyl]phenylethynyl}azetidine-1-carboxamidine]: the Ki or IC50 activity class was < 300 nM.

For the molecule `CN1CCC(OC(c2ccsc2)c2nc3ccccc3s2)CC1` (stereo not shown) [Example 16, 2-[(1-methylpiperidin-4-yloxy)thiophen-3-ylmethyl]benzothiazole], the Ki or IC50 activity class was < 30 nM.

`Cc1ccc(C(OC2CCN(C)CC2)c2nc3ccccc3[nH]2)c(F)c1` (single isomer, unassigned) [Example 533, 2-[(2-fluoro-4-methylphenyl)(1-methylpiperidin-4-yloxy)methyl]-1H-benzimidazole]: the Ki or IC50 activity class was < 30 nM.

Consider `Cc1cc(F)c(C(OC2CCN(C)CC2)c2nc3ccccc3o2)c(F)c1` (stereo not shown) [Example 536], for which the Ki or IC50 activity class was < 30 nM.

With `CN1CCC(OC(c2cccc(OCCCC(F)(F)F)c2)c2nc3ccccc3s2)CC1` (stereo not shown) [Example 169, 2-{(1-methylpiperidin-4-yloxy)[3-(4,4,4-trifluoro-butoxy)phenyl]methyl}benzothiazole], the Ki or IC50 activity class was < 1000 nM.

In the case of `CN1CCC(OC(c2cccc(OCCCCN)c2)c2nc3ccccc3s2)CC1` (stereo not shown) [Example 301, 4-{3-[benzothiazol-2-yl(1-methylpiperidin-4-yloxy)methyl]phenoxy}butylamine], the Ki or IC50 activity class is < 30 nM.

With `CN1CCC(OC(c2cccc(CCCCN)c2)c2nc3ccccc3[nH]2)CC1` (stereo not shown) [Example 293, 4-{3-[(1H-benzimidazol-2-yl)(1-methylpiperidin-4-yloxy)methyl]phenyl}butylamine], the Ki or IC50 activity class was < 300 nM.

As for `CN1CCC(OC(c2ccc([N+](=O)[O-])cc2)c2nc3ccccc3[nH]2)CC1` (stereo not shown) [Example 447, 2-[(1-methylpiperidin-4-yloxy)(4-nitrophenyl)methyl]-1H-benzimidazole], the Ki or IC50 activity class was < 1000 nM.

With `CN1CCC(OC(c2cccc(C#CCNC(=N)N)c2)c2nc3ccccc3[nH]2)CC1` (stereo not shown) [Example 418, N-(3-{3-[(1H-benzimidazol-2-yl)(1-methylpiperidin-4-yloxy)methyl]phenyl}prop-2-ynyl)guanidine], the Ki or IC50 activity class was < 30 nM.

Regarding `CN1CCC(COC(c2cccc(Br)c2)c2nc3ccccc3s2)C1` (single isomer, unassigned) [Example 464], the Ki or IC50 activity class was < 30 nM.

As for `CN1CCC(OC(c2cccc(N3CCC(O)C3)c2)c2nc3ccccc3s2)CC1` (stereo not shown) [Example 407, 1-{3-[benzothiazol-2-yl(1-methylpiperidin-4-yloxy)methyl]phenyl}pyrrolidin-3-ol], the Ki or IC50 activity class under setting [1] is < 30 nM.

In the case of `CN1CC(COC(c2cccc(Br)c2)c2nc3ccccc3[nH]2)C1` (stereo not shown) [Example 506], the Ki or IC50 activity class is < 300 nM.

As for `CN1CCC(NC(c2ccccc2)c2nc3ccccc3s2)CC1` (stereo not shown) [Example 9, (benzothiazol-2-yl-phenylmethyl)(1-methylpiperidin-4-yl)amine], the Ki or IC50 activity class was < 30 nM.

With `CN1CCC(OC(c2cccc(SCCCCCCO)c2)c2nc3ccccc3s2)CC1` (stereo not shown) [Example 292, 6-{3-[benzothiazol-2-yl(1-methylpiperidin-4-yloxy)methyl]phenylsulfanyl}hexan-1-ol], the Ki or IC50 activity class was < 300 nM.

As to `CN1CCC(OC(c2cccc(OCCCF)c2)c2nc3ccccc3[nH]2)CC1` (stereo not shown) [Example 475], the Ki or IC50 activity class is < 300 nM.

Regarding `CN1CCC(OC(c2cccc(SCCCCN)c2)c2nc3ccccc3[nH]2)CC1` (stereo not shown) [Example 326, 4-{3-[(1H-benzimidazol-2-yl)(1-methylpiperidin-4-yloxy)methyl]phenylsulfanyl}butylamine], the Ki or IC50 activity class is < 30 nM.

Take `CNC1CCN(c2cccc(C(OC3CCN(C)CC3)c3nc4ccccc4s3)c2)C1` (stereo not shown) [Example 483]: the Ki or IC50 activity class is < 300 nM.

As for `CCOCCn1c(C(OC2CCN(C)CC2)c2cccc(C#CCCCCN)c2)nc2ccccc21` (stereo not shown) [Example 500], the Ki or IC50 activity class was < 300 nM.

`CCSc1ccc(F)c(C(OC2CCN(C)CC2)c2nc3ccccc3[nH]2)c1` (stereo not shown) [Example 514]: the Ki or IC50 activity class is < 30 nM.

On to `CN1CCC(OC(c2cccc(C#CCCCCN)c2)c2nc3cc(F)ccc3[nH]2)CC1` (stereo not shown) [Example 439, 6-{3-[(5-fluoro-1H-benzimidazol-2-yl)(1-methylpiperidin-4-yloxy)methyl]phenyl}hex-5-ynylamine], for which the Ki or IC50 activity class is < 30 nM.

Consider `CN1CCC(OC(c2ccc3occc3c2)c2nc3ccccc3s2)CC1` (stereo not shown) [Example 46, 2-[benzofuran-5-yl(1-methylpiperidin-4-yloxy)methyl]benzothiazole], for which the Ki or IC50 activity class was < 300 nM.

With `CN1CCC(OC(c2cccc(C#CCCCCNC(=N)N)c2)c2nc3ccccc3[nH]2)CC1` (stereo not shown) [Example 346, N-(6-{3-[(1H-benzimidazol-2-yl)(1-methylpiperidin-4-yloxy)methyl]phenyl}hex-5-ynyl)guanidine], the Ki or IC50 activity class is < 300 nM.

For the molecule `CN1CCC(NC(c2cccc(OCCCC3(C)OCCO3)c2)c2nc3ccccc3[nH]2)CC1` (stereo not shown) [Example 174, ((1H-benzimidazol-2-yl)-{3-[3-(2-methyl-[1,3]dioxolan-2-yl)-propoxy]phenyl}methyl)(1-methylpiperidin-4-yl)amine], the Ki or IC50 activity class was < 300 nM.

Take `CCSc1ccc(F)c(C(OC2CCN(C)CC2)c2nc3ccccc3[nH]2)c1F` (stereo not shown) [Example 520]: the Ki or IC50 activity class was < 300 nM.

On to `CN1CCC(OC(c2cccc(OCC3CCCN(C)C3)c2)c2nc3ccccc3s2)CC1` (stereo not shown) [Example 379, 2-[[3-(1-methylpiperidin-3-ylmethoxy)phenyl](1-methylpiperidin-4-yloxy)methyl]benzothiazole], for which the Ki or IC50 activity class was < 1000 nM.

`CN1CCC(OC(c2nc3ccccc3s2)c2ccc(F)cc2F)CC1` (stereo not shown) [Example 12, 2-[(2,4-difluorophenyl)(1-methyl-piperidin-4-yloxy)methyl]-benzothiazole]: the Ki or IC50 activity class is < 300 nM.

With `CSc1cccc(C(OC2CCN(C)CC2)c2nc3ccccc3[nH]2)c1` (stereo not shown) [Example 202, 2-[(1-methylpiperidin-4-yloxy)(3-methylsulfanyl-phenyl)methyl]-1H-benzimidazole], the Ki or IC50 activity class was < 30 nM.

Take `CN1CCC(OC(c2cccc(SCCCc3cnc[nH]3)c2)c2nc3ccccc3[nH]2)CC1` (stereo not shown) [Example 398, 2-[{3-[3-(3H-imidazol-4-yl)propylsulfanyl]phenyl}(1-methylpiperidin-4-yloxy)methyl]-1H-benzimidazole]: the Ki or IC50 activity class was < 300 nM.

`CN1CCC(OC(c2cccc(CCCNC(=N)N)c2)c2nc3ccccc3[nH]2)CC1` (stereo not shown) [Example 321, N-(3-{3-[(1H-benzimidazol-2-yl)(1-methylpiperidin-4-yloxy)methyl]phenyl}propyl)guanidine]: the Ki or IC50 activity class under setting [1] is < 30 nM.

In the case of `Fc1ccc(OC(F)(F)F)cc1C(OCC1CNC1)c1nc2ccccc2[nH]1` (stereo not shown) [Example 515], the Ki or IC50 activity class was < 1000 nM.

Consider `CN1CCC(OC(c2cccc(OC3CCC(N)C3)c2)c2nc3ccccc3s2)CC1` (stereo not shown) [Example 453], for which the Ki or IC50 activity class was < 30 nM.

For `CN1CCC(OC(c2nc3ccccc3[nH]2)c2cc(C#CCCCCN)ccc2F)CC1` (stereo not shown) [Example 557, 6-{3-[(1H-benzimidazol-2-yl)(1-methylpiperidin-4-yloxy)methyl]-4-fluorophenyl}hex-5-ynylamine], the Ki or IC50 activity class is < 30 nM.

As to `CN1CCC(NC(c2cccc(SCc3ccccc3)c2)c2nc3ccccc3[nH]2)CC1` (stereo not shown) [Example 104, [(1H-benzimidazol-2-yl)(3-benzylsulfanylphenyl)methyl](1-methylpiperidin-4-yl)amine], the Ki or IC50 activity class is < 30 nM.

For `CN1CCC(OC(c2ccc(Cl)cc2)c2nc3ccccc3[nH]2)CC1` (stereo not shown) [Example 226, 2-[(4-chlorophenyl)(1-methylpiperidin-4-yloxy)methyl]-1H-benzimidazole], the Ki or IC50 activity class was < 300 nM.

`CN1CCC(OC(c2ccc(F)cc2)c2nc3ccccc3s2)CC1` (stereo not shown) [Example 3, 2-[(4-fluorophenyl)(1-methylpiperidin-4-yloxy)methyl]benzothiazole]: the Ki or IC50 activity class was < 300 nM.

Turning to `CN1CCC(OC(c2cccc(C#CCNC(=N)N)c2)c2nc3ccccc3s2)CC1` (stereo not shown) [Example 373, N-(3-{3-[benzothiazol-2-yl(1-methylpiperidin-4-yloxy)methyl]phenyl}prop-2-ynyl)guanidine], the Ki or IC50 activity class was < 30 nM.

Consider `CCCOc1cccc(C(NC2CCN(C)CC2)c2nc3ccccc3s2)c1` (single isomer, unassigned) [Example 56, [benzothiazol-2-yl(3-propoxyphenyl)methyl](1-methylpiperidin-4-yl)amine], for which the Ki or IC50 activity class is < 300 nM.

Consider `CN1CCC(OC(c2ccsc2)c2nc3ccccc3[nH]2)CC1` (stereo not shown) [Example 539], for which the Ki or IC50 activity class is < 300 nM.

For `CN1CCC(OC(c2cccc(N3CC4CC(F)CC4C3)c2)c2nc3ccccc3s2)CC1` (stereo not shown) [Example 492], the Ki or IC50 activity class was < 1000 nM.

On to `CN1CCC(OC(c2cccc(OC3CCNC3)c2)c2nc3ccccc3[nH]2)CC1` (stereo not shown) [Example 461], for which the Ki or IC50 activity class is < 300 nM.
